What was measured:
[1] = test system: diabetic mice; assay: Paw thermal response latency (paw response to heat) in STZ Type I diabetes model; type: in vivo, Swiss Webster mice
Experimental: (§1) Adult female Swiss Webster mice (20-25 grams) were used in the study. They were maintained in a room at 65-82° F. and relative humidity of 30-70% illuminated with fluorescent lighting on a 12 hour light/dark cycle. The animals were maintained 2-3 per cage with free access to dry food and municipal water. Diabetes was induced following an overnight fast by injection of streptozotocin (STZ) (90 mg/kg ip in 0.9% sterile saline) on two consecutive days. Hyperglycemia was confirmed 4 days later in a sample of blood obtained by tail prick using a strip operated reflectance meter. Animals were observed daily and weighed weekly during the study period.
(§2) Test compounds were evaluated, with treatment begun immediately after onset of diabetes (Part A) or after 7-8 weeks of diabetes in Part B. Each group started with 10 animals per group to allow identification of differences in nerve conduction, paw thermal latency and intra-epidermal nerve fiber (IENF) density between control and diabetic mice, assuming the routinely observed 20-40% difference between groups and measurement coefficients of variation of 10-20%.
(§3) PART A (onset) • Control+vehicle • Diabetic+vehicle • Diabetic+insulin (by implanted pellet) • Diabetic+NSI-158 • Diabetic+NSI-189 • Diabetic+NSI-190
(§4) PART B (7-8 weeks) • Control+vehicle • Diabetic+vehicle • Diabetic+NSI-150 • Diabetic+NSI-182 • Diabetic+NSI-183 • Diabetic+NSI-189
(§5) Insulin was supplied by an implanted insulin pellet replaced monthly as needed (LinBit™, LinShin, Canada) and the test compounds were supplied by oral gavage. The following measurements were made 24 hours after delivery of test compound: • Body weight: Weekly from onset of diabetes; • Blood glucose: At onset of diabetes and monthly thereafter; • MNCV (large motor fiber function): Before onset of diabetes and monthly thereafter; • Paw tactile response threshold (large sensory fiber function) by manual von Frey filament: Monthly from onset of diabetes; • Paw thermal response latency (small sensory fiber): Monthly from onset of diabetes; • Corneal nerve density (small sensory fiber structure): Images were collected before onset of diabetes and monthly thereafter; • Barnes maze performance (learning and memory): After 10 weeks of diabetes and at study termination; and • Object recognition test (memory): After 10 weeks of diabetes and at study termination.
(§6) The various procedures set forth above are those described in the art as follows: • Jolivalt, C. G., et al., Exp. Neurol. (2010) 223:422-431; • Jolivalt, C. G., et al., Diabetes Obes. Metab. (2011) 13:990-1000; • Jolivalt, C. G., et al., Neuroscience (2012) 202:405-412; and • Chen, D. K., et al., J. Peripher. Nerv. Syst. (2013) 18:306-315.

[2] = test system: diabetic mice; assay: Corneal nerve density (small fiber pathology) in STZ Type I diabetes model; type: in vivo, Swiss Webster mice
Experimental: as §1, §2, §3, §4, §5, §6

[3] = test system: diabetic mice; assay: Paw tactile response threshold by manual von Frey filament (tactile allodynia) in STZ Type I diabetes model; type: in vivo, Swiss Webster mice
Experimental: as §1, §2, §3, §4, §5, §6

[4] = test system: diabetic mice; assay: IENF density in isolated paw skin tissue in STZ Type I diabetes model; type: in vivo, Swiss Webster mice
Experimental: as §1, §2, §3, §4
Paw skin tissue was evaluated for IENF density in some cases.
as §6

[5] = test system: diabetic mice; assay: Nerve density in the sub-epidermal nerve plexus in STZ Type I diabetes model; type: in vivo, Swiss Webster mice
Experimental: as §1, §2, §3, §4, §5, §6

[6] = test system: diabetic mice; assay: MNCV (large motor fiber function) in STZ Type I diabetes model; type: in vivo, Swiss Webster mice
Experimental: as §1, §2, §3, §4, §5, §6

[7] = test system: diabetic mice; assay: Barnes maze test (learning and memory) in STZ Type I diabetes model; type: in vivo, Swiss Webster mice; details: for Barnes maze long-term retention / Barnes maze other parameters (initial acquisition, reinforced learning, short-term retention): Part A (treatment from onset)
Experimental: as §1, §2, §3, §4, §5, §6

[8] = test system: db/db (BKS.Cg-Dock7^m+/+Lepr^db/J) mice; assay: MNCV in Type II diabetes model; type: in vivo; details: after 17-22 weeks of treatment
Source text: (§7) Type II diabetes was modeled by db/db (BKS.Cg-Dock7^m+/+Lepr^db/J) mice. These mice were maintained in a manner similar to that set forth in Example 1.

[9] = test system: db/db (BKS.Cg-Dock7^m+/+Lepr^db/J) mice; assay: Tactile allodynia in Type II diabetes model; type: in vivo; details: after 17-22 weeks of treatment
Source text: as §7

[10] = test system: db/db (BKS.Cg-Dock7^m+/+Lepr^db/J) mice; assay: Thermal hypoalgesia in Type II diabetes model; type: in vivo; details: after 17-22 weeks of treatment
Source text: as §7

[11] = test system: diabetic mice; assay: Object recognition test (memory) in STZ Type I diabetes model; type: in vivo, Swiss Webster mice; details: Part A (treatment from onset), weeks 10 and 16
Experimental: as §1, §2, §3
PART B (7-8 weeks) • Control+vehicle • Diabetic+vehicle • Diabetic+NSI-150 • Diabetic+NSI-182 • Diabetic+NSI-183 • Diabetic+NSI-189 […]

[12] = test system: diabetic mice; assay: Systemic indices of diabetes (body weight, blood glucose, HbA1c) in STZ Type I diabetes model; type: in vivo, Swiss Webster mice; details: Part A, treatment from the outset
Experimental: as §1, §2, §3, §4
Insulin was supplied by an implanted insulin pellet replaced monthly as needed (LinBit™, LinShin, Canada) and the test compounds were supplied by oral gavage. […]

[13] = Part B (treatment after 7-8 weeks of diabetes)
[14] = Part A (treatment from onset), distal regions of small sensory fibers
[15] = Part A (treatment from onset), measured 24 hours after the last treatment
[16] = Part A (treatment from onset of diabetes), end of study period
[17] = Part A (treatment from onset), more proximal regions

Molecule	paw thermal hypoalgesia [1, 13]	loss of corneal nerve density in the stroma [2, 13]	paw tactile allodynia [3, 13]	paw thermal hypoalgesia ([1]; Part A (treatment from onset))	reduction of IENF density in isolated tissue ([4]; Part A (treatment from onset))	loss of corneal nerve density in Bowman's layer [2, 14]	reduction of nerve density in the sub-epidermal nerve plexus ([5]; Part A (treatment from onset))	paw tactile allodynia [3, 15]	MNCV slowing [6, 16]	Barnes maze long-term retention [7]	Barnes maze other parameters (initial acquisition, reinforced learning, short-term retention) [7]	loss of corneal nerve density in Bowman's layer [2, 13]	loss of corneal nerve density in the stroma [2, 17]	also measured
C=CCNC(=O)c1cccnc1NCc1ccccc1OC [NSI-150]	did not	no protective effect	did not											
NC(=O)C1CCCN1C(=O)c1cccnc1NCC1CCCCC1 (centres unmarked) [NSI-158]				prevented paw thermal hypoalgesia	attenuated	no protective effect	attenuated	attenuated tactile allodynia	mild attenuation of MNCV slowing	improved long-term retention	without altering the other parameters			
O=C(NCc1nc2ccccn2c1NCC1CCCO1)Oc1ccccc1 (centres unmarked) [NSI-182]	did not	no protective effect	did not									protective		
O=C(COc1ccccc1)NCc1nc2ccccn2c1NCC1CCCO1 (centres unmarked) [NSI-183]	did not	no protective effect	did not									protective		
CC(C)CCNc1ncccc1C(=O)N1CCN(Cc2ccccc2)CC1 [NSI-189]	prevented progression of paw thermal hypoalgesia	protective	partially reversed paw tactile allodynia	prevented paw thermal hypoalgesia	attenuated	attenuated the loss	attenuated	attenuated tactile allodynia	mild attenuation of MNCV slowing	improved long-term retention	without altering the other parameters	protective	attenuated this loss	reduction of IENF density in isolated tissue [4, 13]: reversed; progressive development of MNCV slowing [8]: significantly reversed; progressive development of tactile allodynia [9]: significantly reversed; reduction of nerve density in the sub-epidermal nerve plexus [5, 13]: protective; MNCV slowing [6, 13]: partially reversed MNCV slowing; progressive development of thermal hypoalgesia [10]: significantly reversed
CCN(CCNC(=O)c1cccnc1NCCC(C)C)Cc1cccnc1 [NSI-190]				prevented paw thermal hypoalgesia		no protective effect	attenuated	attenuated tactile allodynia	mild attenuation of MNCV slowing	improved long-term retention	without altering the other parameters		attenuated this loss	object recognition: impaired short-term memory [11]: prevented this memory loss
insulin [reference compound]				prevents this	prevented	prevented	prevented	attenuated	prevented				prevented	object recognition: impaired short-term memory [11]: not prevented; Barnes maze impairments (initial acquisition and long-term retention) ([7]; Part A, insulin pellet): prevented all of this; hyperglycemia [12]: reduced hyperglycemia; weight gain [12]: partially restored weight gain; HbA1c levels ([12]; terminal): reduced HbA1c levels

— patent US10322115B2, “Amelioration of neural deficits associated with diabetes” (Neuralstem, Inc., priority 2016, dated 2019)
